PubChem BioAssay (NCI)
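Assay format: 96-well plates, 48-hour exposure. TGI: total growth inhibition.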

system: U251 CNS; test: NCI tumour cell line growth inhibition, 48 h

| Compound | TGI [µM] |
| --- | --- |
| CCCCN=C(NC#N)NCCCC | > 100 |
| O=C(/N=N/C(=O)OCc1ccccc1)OCc1ccccc1 | > 100 |

system: HCC-2998 colon; test: NCI tumour cell line growth inhibition, 48 h

| Compound | TGI [µM] |
| --- | --- |
| Cc1cccc(C)c1NC(=O)C(=O)C1C(=O)NC(=O)NC1=O | > 100 |
| O=C1/C(=C/c2ccccc2)CNC/C1=C\c1ccccc1 | 3.33 |
| COC(=O)/C=C/c1cc(OC)c(OC)c(OC)c1 | > 100 |
| CN1CCN(C)C12C=c1ccccc1=CC21CC1 | 30.4 |
| CCCCN=C(NC#N)NCCCC | > 100 |
| CCCCCCCCCCNC1CC(OC2CC(O)(C(O)CO)Cc3c(O)c4c(c(O)c32)C(=O)c2c(OC)cccc2C4=O)OC(C)C1O (configuration not stated) | 2.74 |
| O=C(/N=N/C(=O)OCc1ccccc1)OCc1ccccc1 | > 100 |

system: UACC-62 melanoma; test: NCI tumour cell line growth inhibition, 48 h

| Compound | TGI [µM] |
| --- | --- |
| Cc1cccc(C)c1NC(=O)C(=O)C1C(=O)NC(=O)NC1=O | > 100 |
| O=C1/C(=C/c2ccccc2)CNC/C1=C\c1ccccc1 | 3.69 |
| COC(=O)/C=C/c1cc(OC)c(OC)c(OC)c1 | > 100 |
| CN1CCN(C)C12C=c1ccccc1=CC21CC1 | 34 |
| CCCCN=C(NC#N)NCCCC | > 100 |
| O=C(/N=N/C(=O)OCc1ccccc1)OCc1ccccc1 | > 100 |

system: SN12C renal; test: NCI tumour cell line growth inhibition, 48 h

| Compound | TGI [µM] |
| --- | --- |
| Cc1cccc(C)c1NC(=O)C(=O)C1C(=O)NC(=O)NC1=O | > 100 |
| O=C1/C(=C/c2ccccc2)CNC/C1=C\c1ccccc1 | 3.28 |
| COC(=O)/C=C/c1cc(OC)c(OC)c(OC)c1 | > 100 |
| CN1CCN(C)C12C=c1ccccc1=CC21CC1 | > 100 |
| CCCCN=C(NC#N)NCCCC | > 100 |
| CCCCCCCCCCNC1CC(OC2CC(O)(C(O)CO)Cc3c(O)c4c(c(O)c32)C(=O)c2c(OC)cccc2C4=O)OC(C)C1O (configuration not stated) | 3.4 |
| O=C(/N=N/C(=O)OCc1ccccc1)OCc1ccccc1 | > 100 |

system: EKVX NSCLC; test: NCI tumour cell line growth inhibition, 48 h

| Compound | TGI [µM] |
| --- | --- |
| Cc1cccc(C)c1NC(=O)C(=O)C1C(=O)NC(=O)NC1=O | > 100 |
| O=C1/C(=C/c2ccccc2)CNC/C1=C\c1ccccc1 | 16.5 |
| COC(=O)/C=C/c1cc(OC)c(OC)c(OC)c1 | > 100 |
| CN1CCN(C)C12C=c1ccccc1=CC21CC1 | > 100 |
| CCCCN=C(NC#N)NCCCC | > 100 |
| O=C(/N=N/C(=O)OCc1ccccc1)OCc1ccccc1 | > 100 |

system: IGROV1 ovarian; test: NCI tumour cell line growth inhibition, 48 h

| Compound | TGI [µM] |
| --- | --- |
| Cc1cccc(C)c1NC(=O)C(=O)C1C(=O)NC(=O)NC1=O | > 100 |
| O=C1/C(=C/c2ccccc2)CNC/C1=C\c1ccccc1 | 3.63 |
| COC(=O)/C=C/c1cc(OC)c(OC)c(OC)c1 | > 100 |
| CN1CCN(C)C12C=c1ccccc1=CC21CC1 | > 100 |
| CCCCN=C(NC#N)NCCCC | > 100 |
| O=C(/N=N/C(=O)OCc1ccccc1)OCc1ccccc1 | > 100 |

system: LOX IMVI melanoma; test: NCI tumour cell line growth inhibition, 48 h

| Compound | TGI [µM] |
| --- | --- |
| Cc1cccc(C)c1NC(=O)C(=O)C1C(=O)NC(=O)NC1=O | > 100 |
| O=C1/C(=C/c2ccccc2)CNC/C1=C\c1ccccc1 | 2.05 |
| COC(=O)/C=C/c1cc(OC)c(OC)c(OC)c1 | > 100 |
| CN1CCN(C)C12C=c1ccccc1=CC21CC1 | 90 |
| O=C(/N=N/C(=O)OCc1ccccc1)OCc1ccccc1 | > 100 |

system: SNB-75 CNS; test: NCI tumour cell line growth inhibition, 48 h

| Compound | TGI [µM] |
| --- | --- |
| O=C1/C(=C/c2ccccc2)CNC/C1=C\c1ccccc1 | 11.6 |
| COC(=O)/C=C/c1cc(OC)c(OC)c(OC)c1 | > 100 |
| CN1CCN(C)C12C=c1ccccc1=CC21CC1 | > 93.1 |
| CCCCN=C(NC#N)NCCCC | > 100 |
| CCCCCCCCCCNC1CC(OC2CC(O)(C(O)CO)Cc3c(O)c4c(c(O)c32)C(=O)c2c(OC)cccc2C4=O)OC(C)C1O (configuration not stated) | 2.74 |
| O=C(/N=N/C(=O)OCc1ccccc1)OCc1ccccc1 | > 100 |

system: NCI-H522 lung; test: NCI tumour cell line growth inhibition, 48 h

| Compound | TGI [µM] |
| --- | --- |
| Cc1cccc(C)c1NC(=O)C(=O)C1C(=O)NC(=O)NC1=O | > 100 |
| O=C1/C(=C/c2ccccc2)CNC/C1=C\c1ccccc1 | 2.66 |
| COC(=O)/C=C/c1cc(OC)c(OC)c(OC)c1 | > 100 |
| CN1CCN(C)C12C=c1ccccc1=CC21CC1 | 52.9 |
| CCCCN=C(NC#N)NCCCC | > 100 |
| CCCCCCCCCCNC1CC(OC2CC(O)(C(O)CO)Cc3c(O)c4c(c(O)c32)C(=O)c2c(OC)cccc2C4=O)OC(C)C1O (configuration not stated) | 3.73 |

system: SF-539 CNS; test: NCI tumour cell line growth inhibition, 48 h

| Compound | TGI [µM] |
| --- | --- |
| Cc1cccc(C)c1NC(=O)C(=O)C1C(=O)NC(=O)NC1=O | > 100 |
| O=C1/C(=C/c2ccccc2)CNC/C1=C\c1ccccc1 | 3.46 |
| COC(=O)/C=C/c1cc(OC)c(OC)c(OC)c1 | > 100 |
| CN1CCN(C)C12C=c1ccccc1=CC21CC1 | > 100 |
| CCCCN=C(NC#N)NCCCC | > 100 |
| CCCCCCCCCCNC1CC(OC2CC(O)(C(O)CO)Cc3c(O)c4c(c(O)c32)C(=O)c2c(OC)cccc2C4=O)OC(C)C1O (configuration not stated) | 3.41 |
| O=C(/N=N/C(=O)OCc1ccccc1)OCc1ccccc1 | > 100 |

system: OVCAR-5 ovarian; test: NCI tumour cell line growth inhibition, 48 h

| Compound | TGI [µM] |
| --- | --- |
| Cc1cccc(C)c1NC(=O)C(=O)C1C(=O)NC(=O)NC1=O | > 100 |
| O=C1/C(=C/c2ccccc2)CNC/C1=C\c1ccccc1 | 6.21 |
| CN1CCN(C)C12C=c1ccccc1=CC21CC1 | > 100 |
| CCCCN=C(NC#N)NCCCC | > 100 |
| CCCCCCCCCCNC1CC(OC2CC(O)(C(O)CO)Cc3c(O)c4c(c(O)c32)C(=O)c2c(OC)cccc2C4=O)OC(C)C1O (configuration not stated) | 3.29 |
| O=C(/N=N/C(=O)OCc1ccccc1)OCc1ccccc1 | > 100 |

system: RXF-631 renal; test: NCI tumour cell line growth inhibition, 48 h

| Compound | TGI [µM] |
| --- | --- |
| Cc1cccc(C)c1NC(=O)C(=O)C1C(=O)NC(=O)NC1=O | > 100 |
| O=C1/C(=C/c2ccccc2)CNC/C1=C\c1ccccc1 | 13 |
| COC(=O)/C=C/c1cc(OC)c(OC)c(OC)c1 | > 100 |
| CN1CCN(C)C12C=c1ccccc1=CC21CC1 | > 100 |
| CCCCN=C(NC#N)NCCCC | > 100 |
| O=C(/N=N/C(=O)OCc1ccccc1)OCc1ccccc1 | > 100 |

system: PC-3 prostate; test: NCI tumour cell line growth inhibition, 48 h

| Compound | TGI [µM] |
| --- | --- |
| CN1CCN(C)C12C=c1ccccc1=CC21CC1 | > 96.3 |
| CCCCCCCCCCNC1CC(OC2CC(O)(C(O)CO)Cc3c(O)c4c(c(O)c32)C(=O)c2c(OC)cccc2C4=O)OC(C)C1O (configuration not stated) | 2.85 |

system: MALME-3M melanoma; test: NCI tumour cell line growth inhibition, 48 h

| Compound | TGI [µM] |
| --- | --- |
| Cc1cccc(C)c1NC(=O)C(=O)C1C(=O)NC(=O)NC1=O | > 100 |
| O=C1/C(=C/c2ccccc2)CNC/C1=C\c1ccccc1 | 9.3 |
| COC(=O)/C=C/c1cc(OC)c(OC)c(OC)c1 | > 100 |
| CN1CCN(C)C12C=c1ccccc1=CC21CC1 | 59 |
| CCCCN=C(NC#N)NCCCC | > 100 |
| O=C(/N=N/C(=O)OCc1ccccc1)OCc1ccccc1 | > 100 |

system: KM20L2 colon; test: NCI tumour cell line growth inhibition, 48 h

| Compound | TGI [µM] |
| --- | --- |
| Cc1cccc(C)c1NC(=O)C(=O)C1C(=O)NC(=O)NC1=O | > 100 |
| O=C1/C(=C/c2ccccc2)CNC/C1=C\c1ccccc1 | 3.09 |
| COC(=O)/C=C/c1cc(OC)c(OC)c(OC)c1 | > 100 |
| CN1CCN(C)C12C=c1ccccc1=CC21CC1 | > 58.2 |
| CCCCN=C(NC#N)NCCCC | > 100 |
| O=C(/N=N/C(=O)OCc1ccccc1)OCc1ccccc1 | > 100 |

system: CAKI-1 renal; test: NCI tumour cell line growth inhibition, 48 h

| Compound | TGI [µM] |
| --- | --- |
| Cc1cccc(C)c1NC(=O)C(=O)C1C(=O)NC(=O)NC1=O | > 100 |
| O=C1/C(=C/c2ccccc2)CNC/C1=C\c1ccccc1 | 17.6 |
| COC(=O)/C=C/c1cc(OC)c(OC)c(OC)c1 | > 100 |
| CN1CCN(C)C12C=c1ccccc1=CC21CC1 | > 100 |
| CCCCN=C(NC#N)NCCCC | > 100 |
| O=C(/N=N/C(=O)OCc1ccccc1)OCc1ccccc1 | > 100 |

system: SNB-19 CNS; test: NCI tumour cell line growth inhibition, 48 h

| Compound | TGI [µM] |
| --- | --- |
| Cc1cccc(C)c1NC(=O)C(=O)C1C(=O)NC(=O)NC1=O | > 100 |
| O=C1/C(=C/c2ccccc2)CNC/C1=C\c1ccccc1 | 11.9 |
